Laboratory results: US20120214847A1, “2-[1-PHENYL-5-HYDROXY-4a-SUBSTITUTED-HEXAHYDROCYCLOPENTA[F]INDAZOL-5-YL]ETHYL PHENYL DERIVATIVES AS GLUCOCORTICOID RECEPTOR LIGANDS” (Merck Sharp & Dohme Corp., priority 2009, published 2012)

What follows are compounds tested against T1, glucocorticoid receptor (Homo sapiens, UniProt P04150) (assay: Ligand binding assay (GRBind), 3H-dexamethasone displacement in HeLa cell lysate). Details: 3H-DEX tracer.
T1 construct: endogenous in cells; host or cells: HeLa (ATCC) cell lysate supernatant
T1 sequence (P04150 1-777): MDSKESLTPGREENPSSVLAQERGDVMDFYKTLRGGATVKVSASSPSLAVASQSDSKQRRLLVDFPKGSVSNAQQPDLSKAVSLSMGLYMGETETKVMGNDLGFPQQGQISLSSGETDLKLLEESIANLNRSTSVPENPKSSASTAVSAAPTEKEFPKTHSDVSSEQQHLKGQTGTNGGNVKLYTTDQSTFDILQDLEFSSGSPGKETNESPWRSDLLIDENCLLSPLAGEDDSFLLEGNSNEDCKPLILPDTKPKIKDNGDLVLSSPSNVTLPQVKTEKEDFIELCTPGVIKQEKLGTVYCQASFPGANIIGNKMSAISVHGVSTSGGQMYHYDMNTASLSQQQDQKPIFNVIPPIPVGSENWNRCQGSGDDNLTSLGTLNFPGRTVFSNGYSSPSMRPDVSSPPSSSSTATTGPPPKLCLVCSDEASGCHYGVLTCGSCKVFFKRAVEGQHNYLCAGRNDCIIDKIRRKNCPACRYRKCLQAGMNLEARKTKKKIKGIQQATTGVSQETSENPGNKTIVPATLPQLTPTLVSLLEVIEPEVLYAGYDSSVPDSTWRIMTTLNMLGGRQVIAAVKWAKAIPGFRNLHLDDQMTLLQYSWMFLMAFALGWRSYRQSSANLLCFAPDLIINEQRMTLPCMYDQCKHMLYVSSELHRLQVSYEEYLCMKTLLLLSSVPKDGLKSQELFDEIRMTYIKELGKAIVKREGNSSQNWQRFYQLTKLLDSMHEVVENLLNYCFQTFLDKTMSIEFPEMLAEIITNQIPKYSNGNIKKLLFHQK
In short: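 Cytosolic supernatant from HeLa cells in TEGM buffer (pH 7.2, with molybdate) was incubated overnight at 4 °C with 3H-dexamethasone (6 nM trace solution) and serially diluted compound, with 2% ethanol. Bound receptor was captured on hydroxylapatite, filtered and counted by scintillation. IC50s were calculated using dexamethasone as reference.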

SMILES	Ki [nM]
NC(=O)C(O)c1ccccc1CC[C@]1(O)CCC2=Cc3c(cnn3-c3ccc(F)cc3)C[C@@]21C1CC1 (single isomer, unassigned) [Example 3a]	1.8
CC[C@]12Cc3cnn(-c4ccccc4)c3C=C1CC[C@@]2(O)CC(O)c1ccccn1 (single isomer, unassigned) [Example 82b]	5.46
OCc1ccccc1CC[C@]1(O)CCC2=Cc3c(cnn3-c3ccc(F)cc3)C[C@@]21C1CC1 [Example 2, (4aR,5R)-4a-Cyclopropyl-1-(4-fluorophenyl)-5-{2-[2-(hydroxymethyl)phenyl]ethyl}-1,4,4a,5,6,7-hexahydrocyclopenta[f]indazol-5-ol]	1.32
CC[C@]12Cc3cnn(-c4ccc(F)cc4)c3C=C1CC[C@@]2(O)CCc1ncccc1S(C)(=O)=O [Example 80, (4aS,5R)-4a-Ethyl-1-(4-fluorophenyl)-5-{2-[3-(methylsulfonyl)pyridin-2-yl]ethyl}-1,4,4a,5,6,7-hexahydrocyclopenta[f]indazol-5-ol]	1.32

Now from value to compound:

Ki [nM]	SMILES
1.55	OC(C[C@]1(O)CCC2=Cc3c(cnn3-c3ccc(F)cc3)C[C@@]21C1CC1)c1ccc(F)cn1 (single isomer, unassigned) [Example 79b]
11.3	CC[C@]12Cc3cnn(-c4ccccc4)c3C=C1CC[C@@]2(O)CC(O)c1ccccn1 (single isomer, unassigned) [Example 82a]
7.3	CC[C@]12Cc3cnn(-c4ccccc4)c3C=C1CC[C@@]2(O)CCc1ncccc1S(=O)(=O)C(C)C [Example 81, (4aS,5R)-4a-Ethyl-5-{2-[3-(iso-propylsulfonyl)pyridin-2-yl]ethyl}-1-phenyl-1,4,4a,5,6,7-hexahydrocyclopenta[f]indazol-5-ol]
